Laboratory results as given in patent US20210045385A1, “PYRIDAZINONE-SUBSTITUTED KETOXIMES AS HERBICIDES” (FMC Corporation, priority 2018, published 2021).

Tests used:
Format in all cases: in vivo
[1] = test system: Italian ryegrass (Lolium mutiflorum); assay: Test C preemergence, visual plant response rating; conditions: Test C, 0 is no effect, 100 is complete control
Summary of the method: (§1)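 Seeds sown in a loam–sand blend got a directed preemergence soil spray; postemergence plants (2–10 cm, one- to two-leaf stage) were sprayed with compound in a non-phytotoxic solvent plus surfactant. Injury was scored visually against untreated controls after about 10 d in a greenhouse on a 0–100 scale (100 = complete control).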

[2] = test system: barnyardgrass (Echinochloa crus-galli); assay: Test C preemergence, visual plant response rating; conditions: Test C, 0 is no effect, 100 is complete control
Summary of the method: as §1

[3] = test system: foxtail, giant (giant foxtail, Setaria faberi); assay: Test C preemergence, visual plant response rating; conditions: Test C, 0 is no effect, 100 is complete control
Summary of the method: as §1

kochia (Bassia scoparia) [4] = assay: Test C preemergence, visual plant response rating; conditions: Test C, 0 is no effect, 100 is complete control
Summary of the method: as §1

[5] = test system: pigweed (Amaranthus retroflexus); assay: Test C preemergence, visual plant response rating; conditions: Test C, 0 is no effect, 100 is complete control
Summary of the method: as §1

[6] = test system: ragweed (common ragweed, Ambrosia artemisiifolia); assay: Test C preemergence, visual plant response rating; conditions: Test C, 0 is no effect, 100 is complete control
Summary of the method: as §1

[7] = test system: Italian ryegrass (Lolium mutiflorum); assay: Test C postemergence, visual plant response rating
Summary of the method: as §1

[8] = test system: barnyardgrass (Echinochloa crus-galli); assay: Test C postemergence, visual plant response rating
Summary of the method: as §1

[9] = test system: blackgrass (Alopecurus myosuroides); assay: Test C postemergence, visual plant response rating
Summary of the method: as §1

corn (Zea mays) = assay: Test C postemergence, visual plant response rating
Summary of the method: as §1

[10] = test system: foxtail, giant (giant foxtail, Setaria faberi); assay: Test C postemergence, visual plant response rating
Summary of the method: as §1

[11] = test system: galium (catchweed bedstraw, Galium aparine); assay: Test C postemergence, visual plant response rating
Summary of the method: as §1

kochia (Bassia scoparia) [12] = assay: Test C postemergence, visual plant response rating
Summary of the method: as §1

[13] = test system: pigweed (Amaranthus retroflexus); assay: Test C postemergence, visual plant response rating
Summary of the method: as §1

[14] = test system: ragweed (common ragweed, Ambrosia artemisiifolia); assay: Test C postemergence, visual plant response rating
Summary of the method: as §1

[15] = test system: wheat (Triticum aestivum); assay: Test C postemergence, visual plant response rating
Summary of the method: as §1

[16] = test system: barnyardgrass (Echinochloa crus-galli); assay: Test D flooded paddy test, visual plant response rating; conditions: 250 g ai/ha, scale 0 to 100 (0 no effect, 100 complete control), 13 to 15 d
Summary of the method: (§2)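 Greenhouse paddy assay scored on a 0–100 visual scale after 13 to 15 d, where 100 means complete control and a dash marks no result; dosing was into 3 cm floodwater over 2-leaf plants.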

[17] = test system: duck salad (Heteranthera limosa); assay: as above; conditions: 250 g ai/ha, scale 0 to 100 (0 no effect, 100 complete control), 13 to 15 d
Summary of the method: as §2

rice (Oryza sativa) = assay: as above; conditions: 250 g ai/ha, scale 0 to 100 (0 no effect, 100 complete control), 13 to 15 d
Summary of the method: as §2

[18] = test system: sedge umbrella (small-flower umbrella sedge, Cyperus difformis); assay: as above; conditions: 250 g ai/ha, scale 0 to 100 (0 no effect, 100 complete control), 13 to 15 d
Summary of the method: as §2

[19] = Test C, postemergence, 125 g ai/ha

Row | SMILES | Ryegrass, Italian plant response rating (0 to 100 scale) ([1]; 31 g ai/ha) | Ryegrass, Italian plant response rating (0 to 100 scale) ([1]; 125 g ai/ha) | Barnyardgrass plant response rating (0 to 100 scale) ([2]; 31 g ai/ha) | Barnyardgrass plant response rating (0 to 100 scale) ([2]; 125 g ai/ha) | Foxtail, Giant plant response rating (0 to 100 scale) ([3]; 31 g ai/ha) | Foxtail, Giant plant response rating (0 to 100 scale) ([3]; 125 g ai/ha) | Kochia plant response rating (0 to 100 scale) (kochia (Bassia scoparia) [4]; 31 g ai/ha) | Kochia plant response rating (0 to 100 scale) (kochia (Bassia scoparia) [4]; 125 g ai/ha) | Pigweed plant response rating (0 to 100 scale) ([5]; 31 g ai/ha) | Pigweed plant response rating (0 to 100 scale) ([5]; 125 g ai/ha) | Ragweed plant response rating (0 to 100 scale) ([6]; 31 g ai/ha) | Ragweed plant response rating (0 to 100 scale) ([6]; 125 g ai/ha) | Ryegrass, Italian plant response rating (0 to 100 scale) ([7]; Postemergence, 31 g ai/ha) | Ryegrass, Italian plant response rating (0 to 100 scale) [7, 19] | Barnyardgrass plant response rating (0 to 100 scale) ([8]; Postemergence, 31 g ai/ha) | Barnyardgrass plant response rating (0 to 100 scale) [8, 19] | Blackgrass plant response rating (0 to 100 scale) ([9]; Postemergence, 31 g ai/ha) | Blackgrass plant response rating (0 to 100 scale) [9, 19] | Corn plant response rating (0 to 100 scale) (corn (Zea mays); Postemergence, 31 g ai/ha) | Corn plant response rating (0 to 100 scale) (corn (Zea mays); [19]) | further results
1 | CON=C(c1cc(Cl)cc(F)c1Cl)c1c(O)c(C)nn(C)c1=O [Compound 272] | 90 | 100 | 30 | 50 | 80 | 80 | 10 | 90 | 70 | 100 | 20 | 40 | 90 | 100 | 40 | 60 | 30 | 80 | 10 | 20 | Foxtail, Giant plant response rating (0 to 100 scale) ([10]; Postemergence, 31 g ai/ha): 60; Foxtail, Giant plant response rating (0 to 100 scale) [10, 19]: 90; Galium plant response rating (0 to 100 scale) ([11]; Postemergence, 31 g ai/ha): 90; Galium plant response rating (0 to 100 scale) [11, 19]: 100; Kochia plant response rating (0 to 100 scale) (kochia (Bassia scoparia) [12]; Postemergence, 31 g ai/ha): 70; Kochia plant response rating (0 to 100 scale) (kochia (Bassia scoparia) [12]; [19]): 80; Pigweed plant response rating (0 to 100 scale) ([13]; Postemergence, 31 g ai/ha): 70; Pigweed plant response rating (0 to 100 scale) [13, 19]: 90; Ragweed plant response rating (0 to 100 scale) ([14]; Postemergence, 31 g ai/ha): 60; Ragweed plant response rating (0 to 100 scale) [14, 19]: 80; Wheat plant response rating (0 to 100 scale) ([15]; Postemergence, 31 g ai/ha): 30; Wheat plant response rating (0 to 100 scale) [15, 19]: 60; Plant response rating, Barnyardgrass (Flood) [16]: 25; Plant response rating, Ducksalad (Flood) [17]: 60; Plant response rating, Rice (Flood) (rice (Oryza sativa)): 15; Plant response rating, Sedge, Umbrella (Flood) [18]: 65
2 | CCO/N=C(\c1c(O)c(C)nn(C)c1=O)c1cccc2cc(Cl)ccc12 [Compound 273] | 0 | 40 | 40 | 80 | 80 | 90 | 0 | 40 | 90 | 90 | 20 | 20 | 10 | 60 | 40 | 80 | 80 | 90 | 0 | 30 | Foxtail, Giant plant response rating (0 to 100 scale) ([10]; Postemergence, 31 g ai/ha): 100; Foxtail, Giant plant response rating (0 to 100 scale) [10, 19]: 100; Galium plant response rating (0 to 100 scale) ([11]; Postemergence, 31 g ai/ha): 100; Galium plant response rating (0 to 100 scale) [11, 19]: 100; Kochia plant response rating (0 to 100 scale) (kochia (Bassia scoparia) [12]; Postemergence, 31 g ai/ha): 40; Kochia plant response rating (0 to 100 scale) (kochia (Bassia scoparia) [12]; [19]): 60; Pigweed plant response rating (0 to 100 scale) ([13]; Postemergence, 31 g ai/ha): 90; Pigweed plant response rating (0 to 100 scale) [13, 19]: 100; Ragweed plant response rating (0 to 100 scale) ([14]; Postemergence, 31 g ai/ha): 90; Ragweed plant response rating (0 to 100 scale) [14, 19]: 100; Wheat plant response rating (0 to 100 scale) ([15]; Postemergence, 31 g ai/ha): 0; Wheat plant response rating (0 to 100 scale) [15, 19]: 0; Plant response rating, Barnyardgrass (Flood) [16]: 90; Plant response rating, Ducksalad (Flood) [17]: 95; Plant response rating, Rice (Flood) (rice (Oryza sativa)): 85; Plant response rating, Sedge, Umbrella (Flood) [18]: 95
